Measurements as given in PMC3947597 (Bioorganic & medicinal chemistry, 2013).

System: tubulin (colchicine site)
Experiment: Inhibition of [3H]colchicine binding to tubulin
Conditions: 1.0 µM tubulin, 5.0 µM [3H]colchicine, 10 min at 37 °C

Question: For COc1ccc(/C=C\c2cc(OC)c(OC)c(OC)c2)cc1O [CA4, combretastatin A-4], which “Inhibition of colchicine binding (%) ±SD, 1 µM” value (inhibitor 1 µM) is on record?
Answer: The value was 88±2%.

Question: What about the “Inhibition of colchicine binding (%) ±SD, 5 µM” value (inhibitor 5 µM) of the same compound?
Answer: The value was 98±0.5%.
